Measurements published in patent US4468511A, “C-20- And C-23-Modified macrolide derivatives” (Eli Lilly and Company, priority 1983, dated 1984).
In brackets after ≈: the same amount, converted by molar mass. Where two headings read alike, the source gives them in different places.

Assays:
[1] = test system: Haemophilus influenzae 76; experiment: MIC, standard agar-dilution assay; type: cell-based; settings: agar-dilution; Haemophilus influenzae 76, Ampicillin-resistant strain; read-out: MIC
Method: (§1) The MIC's in Table II were determined by standard agar-dilution assays. The MIC's in Table III were obtained using a conventional broth-dilution microtiter test.

[2] = test system: Staphylococcus epidermidis EPI2; experiment: MIC, standard agar-dilution assay; type: cell-based
Method: as §1

[3] = test system: Staphylococcus aureus X400; experiment: MIC, standard agar-dilution assay; type: cell-based; settings: Staphylococcus aureus, X400
Method: as §1

[4] = test system: Haemophilus influenzae C.L.; experiment: MIC, standard agar-dilution assay; type: cell-based; settings: Haemophilus influenzae
Method: as §1

[5] = test system: Klebsiella pneumoniae X26; experiment: MIC, standard agar-dilution assay; type: cell-based
Method: (§2) Certain of the derivatives are active against some gram-negative bacteria, such as Pasteurella species. The MIC's in Table II were determined by standard agar-dilution assays. The MIC's in Table III were obtained using a conventional broth-dilution microtiter test.

[6] = test system: Klebsiella pneumoniae KAE; experiment: MIC, standard agar-dilution assay; type: cell-based
Method: as §2

[7] = test system: Staphylococcus aureus X1.1; experiment: MIC, standard agar-dilution assay; type: cell-based; settings: Staphylococcus aureus, X1.1
Method: as §2

[8] = test system: Streptococcus Group D X66; experiment: MIC, standard agar-dilution assay; type: cell-based
Method: as §2

[9] = test system: Staphylococcus aureus V41; experiment: MIC, standard agar-dilution assay; type: cell-based; settings: Staphylococcus aureus, V41
Method: as §2

Escherichia coli TEM = experiment: MIC, standard agar-dilution assay; type: cell-based; settings: agar-dilution; Escherichia coli TEM; read-out: MIC
Method: as §2

[10] = test system: Streptococcus pyogenes 9960; experiment: MIC, standard agar-dilution assay; type: cell-based; settings: agar-dilution, Streptococcus 9960, read-out: MIC
Method: as §2

Escherichia coli EC14 = experiment: MIC, standard agar-dilution assay; type: cell-based
Method: as §2

[11] = test system: Streptococcus pyogenes C203; experiment: MIC, standard agar-dilution assay; type: cell-based; settings: agar-dilution; Streptococcus pyogenes C203; read-out: MIC
Method: as §2

[12] = test system: Streptococcus pyogenes C203; experiment: Protection of mice experimentally infected with S. pyogenes C203; type: in vivo; settings: mg/kg × 2, doses given 1 and 4 hours postinfection
Method: Some of the derivatives of this invention have shown in vivo antimicrobial activity against experimentally-induced infections in laboratory animals. When two doses of test compound were administered to mice experimentally infected with S. pyogenes C203, the activity observed was measured as an ED50 value [effective dose in mg/kg to protect 50% of the test animals: see Warren Wick, et al., J. Bacteriol. 81, 233-235 (1961)].

[13] = test system: Staphylococcus epidermidis EPI1; experiment: microbe, parasite or virus in culture; type: cell-based; settings: Staphylococcus epidermidis, EPI1
Method: as §1

[14] = test system: Staphylococcus aureus S13E; experiment: microbe, parasite or virus in culture; type: cell-based
Method: as §1

[15] = test system: Pasteurella hemolytica 23C; experiment: MIC, conventional broth-dilution microtiter test; type: cell-based; settings: broth-dilution microtiter; Pasteurella hemolytica 23C; read-out: MIC
Method: as §2

[16] = test system: Pasteurella multocida 22A; experiment: MIC, conventional broth-dilution microtiter test; type: cell-based
Method: as §2

Streptococcus sp. 80 = experiment: MIC, conventional broth-dilution microtiter test; type: cell-based
Method: as §2

[17] = test system: Pasteurella multocida 60A; experiment: MIC, conventional broth-dilution microtiter test; type: cell-based; settings: broth-dilution microtiter; Pasteurella multocida 60A, Avian isolate; read-out: MIC
Method: as §2

[18] = test system: Pasteurella multocida 68C; experiment: MIC, conventional broth-dilution microtiter test; type: cell-based
Method: as §2

Mycoplasma hyorhinis = experiment: MIC, conventional broth-dilution microtiter test; type: cell-based; settings: broth-dilution microtiter; Mycoplasma hyorhinis; read-out: MIC
Method: as §2

Mycoplasma gallisepticum = experiment: MIC, conventional broth-dilution microtiter test; type: cell-based; settings: Mycoplasmoides gallisepticum
Method: as §2

Staphylococcus aureus = experiment: MIC, conventional broth-dilution microtiter test; type: cell-based; settings: broth-dilution microtiter, read-out: MIC
Method: as §2

[19] = test system: Mycoplasma gallisepticum 34159; experiment: MIC, conventional broth-dilution microtiter test; type: cell-based; settings: Mycoplasmoides gallisepticum
Method: as §2

[20] = test system: Pasteurella multocida 17E; experiment: MIC, conventional broth-dilution microtiter test; type: cell-based
Method: as §2

[21] = test system: Mycoplasma gallisepticum 41313; experiment: MIC, conventional broth-dilution microtiter test; type: cell-based; settings: Mycoplasmoides gallisepticum
Method: as §2

Mycoplasma synoviae = experiment: MIC, conventional broth-dilution microtiter test; type: cell-based; settings: Mycoplasmopsis synoviae; broth-dilution microtiter; Mycoplasma synoviae; read-out: MIC
Method: as §2

[22] = test system: Pasteurella hemolytica 41D; experiment: MIC, conventional broth-dilution microtiter test; type: cell-based; settings: broth-dilution microtiter; Pasteurella hemolytica 41D; read-out: MIC
Method: as §2

[23] = test system: Pasteurella multocida 40G; experiment: MIC, conventional broth-dilution microtiter test; type: cell-based
Method: as §2

[24] = test system: Pasteurella hemolytica 22C; experiment: MIC, conventional broth-dilution microtiter test; type: cell-based; settings: broth-dilution microtiter; Pasteurella hemolytica 22C; read-out: MIC
Method: as §2

[25] = test system: Streptococcus pneumoniae Park I; experiment: MIC, standard agar-dilution assay; type: cell-based; settings: agar-dilution; Streptococcus pneumoniae Park I; read-out: MIC
Method: as §2

SMILES	MIC [1] [mg/L]	MIC [3] [mg/L]	MIC [4] [mg/L]	MIC [7] [mg/L]	MIC [9] [mg/L]	MIC (Escherichia coli TEM) [mg/L]	MIC [10] [mg/L]	MIC [11] [mg/L]	MIC [13] [mg/L]	MIC [14] [mg/L]	MIC [15] [mg/L]	MIC [17] [mg/L]	MIC (Mycoplasma hyorhinis) [mg/L]	MIC (Staphylococcus aureus) [mg/L]	MIC (Mycoplasma synoviae) [mg/L]	MIC [22] [mg/L]	MIC [24] [mg/L]	also measured
CCC1CC(C)C(=O)C=CC(C)=CC(COc2cccc(OC)c2OC)C(CC)OC(=O)CC(O)C(C)C1OC1OC(C)C(O)C(N(C)C)C1O (stereo not drawn) [Compound 47, 23-O-(2,3-Dimethoxyphenyl)-20-deoxy-20-dihydro-OMT]	16 (≈ 22.2 µM)	0.25 (≈ 0.347 µM)	32 (≈ 44.4 µM)	0.25 (≈ 0.347 µM)	0.25 (≈ 0.347 µM)	128 (≈ 178 µM)	0.25 (≈ 0.347 µM)	0.25 (≈ 0.347 µM)	0.25 (≈ 0.347 µM)	0.25 (≈ 0.347 µM)	25 (≈ 34.7 µM)	25 (≈ 34.7 µM)	25 (≈ 34.7 µM)	3.12 (≈ 4.33 µM)	6.25 (≈ 8.68 µM)	25 (≈ 34.7 µM)	25 (≈ 34.7 µM)	MIC ([2]; Staphylococcus epidermidis, EPI2): 0.25 mg/L (≈ 0.347 µM); MIC ([5]; Klebsiella pneumoniae, X26): 4 mg/L (≈ 5.56 µM); MIC ([6]; agar-dilution, Klebsiella pneumoniae KAE, read-out: MIC): > 128 mg/L; MIC ([8]; agar-dilution, Streptococcus Group D X66, read-out: MIC): 0.25 mg/L (≈ 0.347 µM); MIC (Escherichia coli EC14; agar-dilution, Escherichia coli EC14, read-out: MIC): > 128 mg/L; ED50 ([12]; C203, mice, oral, read-out: ED50 Oral): > 50 mg/kg; ED50 ([12]; C203, sc, mice, subcutaneous, read-out: ED50 Subcutaneous): > 10 mg/kg; MIC ([16]; Pasteurella multocida, 22A): 50 mg/L (≈ 69.5 µM); MIC (Streptococcus sp. 80; Streptococcus, SP.80): 1.56 mg/L (≈ 2.17 µM); MIC ([18]; Pasteurella multocida, 68C): 12.5 mg/L (≈ 17.4 µM); MIC (Mycoplasma gallisepticum): 1.56 mg/L (≈ 2.17 µM); MIC [19]; 34159: 50 mg/L (≈ 69.5 µM); MIC ([20]; broth-dilution microtiter, Pasteurella multocida 17E, Bovine isolate, read-out: MIC): 25 mg/L (≈ 34.7 µM); MIC [21]; 41313: 50 mg/L (≈ 69.5 µM); MIC ([23]; Pasteurella multocida, 40G): 12.5 mg/L (≈ 17.4 µM)
CCC1OC(=O)CC(O)C(C)C(OC2OC(C)C(O)C(N(C)C)C2O)C(CCO)CC(C)C(=O)C=CC(C)=CC1CN1CCCCCCC1 (stereo not drawn) [Compound 58, 20-Dihydro-23-Octahydroazocin-1-yl-23-deoxy-OMT]	4 (≈ 5.76 µM)	1 (≈ 1.44 µM)	2 (≈ 2.88 µM)	0.5 (≈ 0.719 µM)	0.5 (≈ 0.719 µM)	8 (≈ 11.5 µM)	4 (≈ 5.76 µM)	0.25 (≈ 0.36 µM)	0.5 (≈ 0.719 µM)	0.5 (≈ 0.719 µM)	0.78 (≈ 1.12 µM)	0.78 (≈ 1.12 µM)	25 (≈ 36 µM)	0.78 (≈ 1.12 µM)	6.25 (≈ 8.99 µM)	0.39 (≈ 0.561 µM)	0.78 (≈ 1.12 µM)	MIC ([2]; agar-dilution, Staphylococcus epidermidis EPI2, read-out: MIC): 0.25 mg/L (≈ 0.36 µM); MIC ([5]; agar-dilution, Klebsiella pneumoniae X26, read-out: MIC): 2 mg/L (≈ 2.88 µM); MIC ([6]; Klebsiella pneumoniae): 64 mg/L (≈ 92.1 µM); MIC [8]: 2 mg/L (≈ 2.88 µM); MIC [25]: 0.25 mg/L (≈ 0.36 µM); MIC (Escherichia coli EC14; Escherichia coli, EC14): 64 mg/L (≈ 92.1 µM); MIC ([16]; broth-dilution microtiter, Pasteurella multocida 22A, read-out: MIC): 1.56 mg/L (≈ 2.24 µM); MIC (Streptococcus sp. 80; broth-dilution microtiter, Streptococcus sp. 80, read-out: MIC): 1.56 mg/L (≈ 2.24 µM); MIC ([18]; broth-dilution microtiter, Pasteurella multocida 68C, read-out: MIC): 1.56 mg/L (≈ 2.24 µM); MIC (Mycoplasma gallisepticum; broth-dilution microtiter, Mycoplasma gallisepticum, read-out: MIC): 0.39 mg/L (≈ 0.561 µM); MIC ([19]; broth-dilution microtiter, Mycoplasma gallisepticum 34159, Resistant strain, read-out: MIC): > 50 mg/L; MIC ([20]; Pasteurella multocida, 17E): 3.12 mg/L (≈ 4.49 µM); MIC ([21]; broth-dilution microtiter, Mycoplasma gallisepticum 41313, Resistant strain, read-out: MIC): 50 mg/L (≈ 71.9 µM); MIC ([23]; broth-dilution microtiter, Pasteurella multocida 40G, read-out: MIC): 0.39 mg/L (≈ 0.561 µM)
